The target of series [1] is T1, Topoisomerase I (Homo sapiens, UniProt P11387).
T1 sequence (P11387 1-765): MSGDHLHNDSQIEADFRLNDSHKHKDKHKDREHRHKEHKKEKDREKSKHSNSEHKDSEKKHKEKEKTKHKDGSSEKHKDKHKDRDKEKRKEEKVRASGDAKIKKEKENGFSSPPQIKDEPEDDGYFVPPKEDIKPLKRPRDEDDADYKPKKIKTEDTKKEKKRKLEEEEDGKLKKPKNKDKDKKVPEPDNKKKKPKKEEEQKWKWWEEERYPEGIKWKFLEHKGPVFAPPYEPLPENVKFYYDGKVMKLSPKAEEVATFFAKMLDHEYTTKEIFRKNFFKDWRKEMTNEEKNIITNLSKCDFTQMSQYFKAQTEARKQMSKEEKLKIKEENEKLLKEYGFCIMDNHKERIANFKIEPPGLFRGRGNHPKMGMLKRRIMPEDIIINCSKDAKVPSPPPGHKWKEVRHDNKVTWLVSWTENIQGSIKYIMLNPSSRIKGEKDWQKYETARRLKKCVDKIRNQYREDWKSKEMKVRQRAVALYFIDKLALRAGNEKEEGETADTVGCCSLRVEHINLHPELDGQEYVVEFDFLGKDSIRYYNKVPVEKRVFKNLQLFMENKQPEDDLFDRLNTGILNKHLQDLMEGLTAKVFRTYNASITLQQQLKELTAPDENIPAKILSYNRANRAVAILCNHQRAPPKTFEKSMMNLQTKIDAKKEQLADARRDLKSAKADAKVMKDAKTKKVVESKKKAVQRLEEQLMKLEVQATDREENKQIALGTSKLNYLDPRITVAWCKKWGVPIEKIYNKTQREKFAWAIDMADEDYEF
Description: Topoisomerase I inhibition. Format: biochemical.

Series [2] deals with MDR/MRP, Breast Cancer Resistance Protein (BCRP). The note with it: cited from earlier work.
Series [3] can be described thus: Preclinical toxicology, oral single daily doses for five consecutive days. The conditions noted are these: beagle dogs.

The values that follow come from patent publication US10413538B2, “Administration of karenitecin for the treatment of platinum and/or taxane chemotherapy-resistant or -refractory advanced ovarian cancer” (priority 2013, dated 2019).

For the molecule `CC[C@@]1(O)C(=O)OCc2c1cc1n(c2=O)Cc2c-1nc1ccccc1c2CC[Si](C)(C)C` [Karenitecin, (4S)-4-ethyl-4-hydroxy-11-[2-(trimethylsilyl)ethyl]-1H-pyrano[3′:4′:6,7]indolizino[1,2-b]quinoline-3,14(4H,12H)-dione], the “Topoisomerase I inhibition” value in series [1] is recorded as “potent inhibitor of Topoisomerase I”. The “sensitivity to tumor-mediated drug resistance mechanisms including BCRP” value in series [2] is reported as “insensitive to all commonly-known tumor-mediated drug resistance mechanisms”. Further, the “oral MTD relative to intravenous (I.V.) MTD” value in series [3] is “approximately 2 times”.
